Measured values from patent US8916567B2, “Certain crystalline hydrates, pharmaceutical compositions thereof and methods for preparation and use thereof” (Universal Technology Alliance, Inc., priority 2009, dated 2014).

Assay: Solubility in different solvents according to Chinese Pharmacopeia (2005 edition); for Result: test concentration or dose not given here
Assay type: physicochemical
Conditions: for Solubility compared with the anhydride: different solvents; for Result: at the given solute:solvent ratio
Protocol: The solubility of the (S)—[N-3-(3′-fluoro-4′-(4″-phenylpiperazinyl))phenyl-2-oxo-5-oxazolelidinyl]methylacetamide hydrates was tested with different solvents, and the test results are shown in Tables 15-19. The solubility was measured according to Chinese Pharmacopeia (2005 edition).

In the case of `CC(=O)NC[C@H]1CN(c2ccc(N3CCN(c4ccccc4)CC3)c(F)c2)C(=O)O1` [1/12 hydrate, (S)—[N-3-(3′-fluoro-4′-(4″-phenylpiperazinyl))phenyl-2-oxo-5-oxazolidinyl]methyl acetamide 1/12 hydrate], the “Solubility compared with the anhydride” value is reported as “sometimes more soluble than the anhydride”, the Result (solvent 0.1N Hydrochloric acid) is reported as “Dissolved” and the Result (solvent 0.1N Sodium hydroxide) is reported as “Insoluble”. For the same compound, the Result (solvent Acetonitrile) was “Dissolved”, the Result (solvent Ethanol) was “Dissolved” and the Result (solvent Methanol) was “Dissolved”. The Result (solvent Water, hydrate) was “Dissolved”.
With `CC(=O)NC[C@H]1CN(c2ccc(N3CCN(c4ccccc4)CC3)c(F)c2)C(=O)O1` [2/7 hydrate, (S)—[N-3-(3′-fluoro-4′-(4″-phenylpiperazinyl))phenyl-2-oxo-5-oxazolidinyl]methyl acetamide 2/7 hydrate] the “Solubility compared with the anhydride” value was “sometimes more soluble than the anhydride”, the Result (solvent 0.1N Hydrochloric acid) was “Dissolved” and the Result (solvent 0.1N Sodium hydroxide) was “Insoluble”. For the same compound, the Result (solvent Acetonitrile) was “Dissolved”, the Result (solvent Ethanol) was “Dissolved” and the Result (solvent Methanol) was “Dissolved”. The Result (solvent Water, hydrate) was “Dissolved”.
With `CC(=O)NC[C@H]1CN(c2ccc(N3CCN(c4ccccc4)CC3)c(F)c2)C(=O)O1` [3/4 hydrate, (S)—[N-3-(3′-fluoro-4′-(4″-phenylpiperazinyl))phenyl-2-oxo-5-oxazolidinyl]methyl acetamide 3/4 hydrate] the “Solubility compared with the anhydride” value was “sometimes more soluble than the anhydride”, the Result (solvent 0.1N Hydrochloric acid) was “Dissolved” and the Result (solvent 0.1N Sodium hydroxide) was “Insoluble”. For the same compound, the Result (solvent Acetonitrile) was “Dissolved”, the Result (solvent Ethanol) was “Dissolved” and the Result (solvent Methanol) was “Dissolved”. The Result (solvent Water, listed as ¾ hydrate, hydrate) was “Dissolved”.
For `CC(=O)NC[C@H]1CN(c2ccc(N3CCN(c4ccccc4)CC3)c(F)c2)C(=O)O1` [½ hydrate, (S)—[N-3-(3′-fluoro-4′-(4″-phenylpiperazinyl))phenyl-2-oxo-5-oxazolidinyl]methyl acetamide 1/2 hydrate], the “Solubility compared with the anhydride” value was “sometimes more soluble than the anhydride”, the Result (solvent 0.1N Hydrochloric acid) was “Dissolved” and the Result (solvent 0.1N Sodium hydroxide) was “Insoluble”. The Result (solvent Acetonitrile) was “Dissolved”, the Result (solvent Ethanol) was “Dissolved” and the Result (solvent Methanol) was “Dissolved”. The Result (solvent Water, hydrate) was “Dissolved”.
For `CC(=O)NC[C@H]1CN(c2ccc(N3CCN(c4ccccc4)CC3)c(F)c2)C(=O)O1` [⅖ hydrate, (S)—[N-3-(3′-fluoro-4′-(4″-phenylpiperazinyl))phenyl-2-oxo-5-oxazolidinyl]methyl acetamide 2/5 hydrate], the “Solubility compared with the anhydride” value was “sometimes more soluble than the anhydride”, the Result (solvent 0.1N Hydrochloric acid) was “Dissolved” and the Result (solvent 0.1N Sodium hydroxide) was “Insoluble”. For the same compound, the Result (solvent Acetonitrile) was “Dissolved”, the Result (solvent Ethanol) was “Dissolved” and the Result (solvent Methanol) was “Dissolved”. For the same compound, the Result (solvent Water, hydrate) was “Dissolved”.
